From BindingDB's records for patent US11725000 (National Institute of Biological Sciences, Beijing, 2023)

Biological target: T1, Succinate dehydrogenase [ubiquinone] iron-sulfur subunit, mitochondrial (Homo sapiens, UniProt P21912)
T1 sequence (P21912 whole entry): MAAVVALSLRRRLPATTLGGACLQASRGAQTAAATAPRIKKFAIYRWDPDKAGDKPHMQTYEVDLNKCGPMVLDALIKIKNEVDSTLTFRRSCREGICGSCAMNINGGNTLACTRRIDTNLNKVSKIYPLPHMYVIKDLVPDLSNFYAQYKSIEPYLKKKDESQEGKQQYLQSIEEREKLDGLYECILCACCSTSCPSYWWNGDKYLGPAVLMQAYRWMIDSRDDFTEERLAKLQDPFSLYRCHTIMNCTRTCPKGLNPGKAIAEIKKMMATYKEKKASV
Assay: Apoptosis Inhibition Assay
Description: In order to identify the target protein of tTC09 apoptosis inhibitors, we synthesized two sets of probes for target identification based on the SAR study. The first set of probes was designed for direct activity based protein profiling (ABPP) with biotin tag linked at different site. […] TC09 apoptosis inhibitors could stabilize the mitochondrial respiratory chain after Bim/tBid overexpression and help maintain the normal function of mitochondria. A second set of probes with a terminal alkyne group designed for click-reaction-assisted ABPP were also prepared.

Question: CS(=O)(=O)c1nc(-c2cccs2)cc(C(F)(F)F)n1 [US11725000, Compound 1] was tested. Which EC50 did it give?
Answer: 1000 to 10000 nM

Question: For CCCS(=O)(=O)c1nc(-c2cccs2)cc(C(F)(F)F)n1 [US11725000, Compound 4], which EC50 is on record?
Answer: 4210 nM

Question: CCC[S+]([O-])c1nc(-c2cccs2)cc(C(F)(F)F)n1 (stereo not given) [US11725000, Compound 5] was tested. Which EC50 did it give?
Answer: 1170 nM

Question: How did the EC50 turn out when [O-][S+](CC1CC1)c1nc(-c2cccs2)cc(C(F)(F)F)n1 (stereo not given) [US11725000, Compound 10] was run?
Answer: 2200 nM

Question: O=S(=O)(Cc1ccccc1)c1nc(-c2cccs2)cc(C(F)(F)F)n1 [US11725000, Compound 11] was tested. Which EC50 did it give?
Answer: 6640 nM

Question: Which EC50 does the source give for [O-][S+](Cc1ccccc1)c1nc(-c2cccs2)cc(C(F)(F)F)n1 (stereo not given) [US11725000, Compound 12] here?
Answer: 3490 nM

Question: Which EC50 does the source give for N#Cc1ccccc1CS(=O)(=O)c1nc(-c2cccs2)cc(C(F)(F)F)n1 [US11725000, Compound 13] here?
Answer: 6350 nM

Question: With N#Cc1ccccc1C[S+]([O-])c1nc(-c2cccs2)cc(C(F)(F)F)n1 (stereo not given) [US11725000, Compound 14] as the molecule, how does the EC50 read?
Answer: 7030 nM

Question: For N#Cc1cccc(C[S+]([O-])c2nc(-c3cccs3)cc(C(F)(F)F)n2)c1 (stereo not given) [US11725000, Compound 15], which EC50 is on record?
Answer: 3520 nM

Question: For O=S(=O)(Cc1cc(F)cc(F)c1)c1nc(-c2cccs2)cc(C(F)(F)F)n1 [US11725000, Compound 18], which EC50 is on record?
Answer: 1160 nM

Question: [O-][S+](Cc1cc(F)cc(F)c1)c1nc(-c2cccs2)cc(C(F)(F)F)n1 (stereo not given) [US11725000, Compound 19] was tested. Which EC50 did it give?
Answer: 1140 nM

Question: How did the EC50 turn out when [O-][S+](Cc1ccc(-c2ccccc2)cc1)c1nc(-c2cccs2)cc(C(F)(F)F)n1 (stereo not given) [US11725000, Compound 20] was run?
Answer: 257 nM

Question: O=S(=O)(Cc1ccc([N+]2([O-])CCOCC2)cc1)c1nc(-c2cccs2)cc(C(F)(F)F)n1 [US11725000, Compound 22] was tested. Which EC50 did it give?
Answer: 1410 nM

Question: Which EC50 does the source give for O=S(=O)(Cc1ccc2c(ccc[n+]2[O-])c1)c1nc(-c2cccs2)cc(C(F)(F)F)n1 [US11725000, Compound 23] here?
Answer: 57 nM

Question: [O-][S+](Cc1ccc2ncccc2c1)c1nc(-c2cccs2)cc(C(F)(F)F)n1 (stereo not given) [US11725000, Compound 24] was tested. Which EC50 did it give?
Answer: 110 nM

Question: With O=C1CCCN1CC[S+]([O-])c1nc(-c2cccs2)cc(C(F)(F)F)n1 (stereo not given) [US11725000, Compound 25] as the molecule, how does the EC50 read?
Answer: 69 nM

Question: For O=S(=O)(CCc1ccccc1)c1nc(-c2cccs2)cc(C(F)(F)F)n1 [US11725000, Compound 26], which EC50 is on record?
Answer: 94 nM

Question: Which EC50 does the source give for [O-][S+](CCc1ccccc1)c1nc(-c2cccs2)cc(C(F)(F)F)n1 (stereo not given) [US11725000, Compound 27] here?
Answer: 13 nM

Question: O=C(O)CC[S+]([O-])c1nc(-c2cccs2)cc(C(F)(F)F)n1 (stereo not given) [US11725000, Compound 28] was tested. Which EC50 did it give?
Answer: 499 nM

Question: Which EC50 does the source give for CCOC(=O)CCS(=O)(=O)c1nc(-c2cccs2)cc(C(F)(F)F)n1 [US11725000, Compound 29] here?
Answer: 104 nM

Question: How did the EC50 turn out when CCOC(=O)CC[S+]([O-])c1nc(-c2cccs2)cc(C(F)(F)F)n1 (stereo not given) [US11725000, Compound 30] was run?
Answer: 4880 nM

Question: Which EC50 does the source give for COC(=O)CCC[S+]([O-])c1nc(-c2cccs2)cc(C(F)(F)F)n1 (stereo not given) [US11725000, Compound 32] here?
Answer: 64 nM

Question: Which EC50 does the source give for C[S+]([O-])c1nc(Cl)cc(-c2cccs2)n1 (stereo not given) [US11725000, Compound 33] here?
Answer: 4480 nM

Question: Cc1cc(-c2cccs2)nc(S(C)(=O)=O)n1 [US11725000, Compound 34] was tested. Which EC50 did it give?
Answer: 817 nM

Question: How did the EC50 turn out when C#Cc1cc(-c2cccs2)nc(S(C)(=O)=O)n1 [US11725000, Compound 35] was run?
Answer: 995 nM
